# Measured values taken from patent US10799590B2, “Compositions containing a bitter tastant and at least one sophorolipid, and methods of reducing bitter taste attributed to a bitter tastant in an edible composition” (The United States of America, as Represented by the …, priority 2015, dated 2020).
# Test system: chorda tympani nerve of wild-type B6 mice
# Experiment: Chorda tympani whole-nerve responses to lingual taste stimuli, wild-type B6 mice
# Assay type: in vivo
# Details: lingual application (FIG. 6B, 7)
# Procedure: Mouse model for sweet property and bitter-masking assay. Recordings of chorda tympani (CT) whole-nerve responses: All protocols involving animals were approved by the Institutional Animal Care and Use Committees at the Monell Center prior to the experiments. The study was performed with mice from two strains: C57BL/6J inbred strain (B6; Jackson Laboratory, Bar Harbor, Me.) bearing the wild-type Tas1r3 allele was used as the control, and the C57BL/6J-Tas1r3^tm1Rjm “gene-knockout” strain (T1R3-KO) lacking the entire T1R3 coding region and devoid of T1R3 protein ([…]., et al., Science, 301: 850-853 (2003)). Afferent signals from taste cells are relayed to the brain via three major gustatory nerves: the chorda tympani, glossopharyngeal, and greater superficial petrosal. […] Neural responses resulting from chemical stimulations of the tongue were fed into an amplifier (Grass Instruments, West Warwick, R.I.) and monitored on an oscilloscope and an audio monitor. Whole-nerve responses were integrated with a time constant of 1.0 s and recorded using a computer for later analysis using a PowerLab system (PowerLab/sp4; AD Instruments, Colorado Springs, Colo.). […] To analyze nerve responses to each stimulus, the magnitudes of integrated responses at 5, 10, 15, 20, and 25 s after stimulus onset were measured and averaged. […]
smiles,measurement,value
"OC[C@H]1O[C@@H](O[C@@H]2[C@@H](O)[C@H](O)[C@@H](CO)O[C@H]2O)[C@H](O)[C@@H](O)[C@@H]1O [Sophorose, 2-O-β-D-glucopyranosyl-β-D glucopyranose]",chorda tympani responses,present
